Legend:
Type in all cases: in vivo
[1] = tested on: Phytophthora infestans (Tomatoes); settings: 100 ppm a.i. foliar spray or root drench (approx. 40 ppm in dry soil), one or two days before inoculation
Septoria nodorum (Wheat) = experiment: Foliar fungal disease test on plants: Septoria nodorum (Wheat); settings: 100 ppm a.i. foliar spray or root drench (approx. 40 ppm in dry soil), one or two days before inoculation
Protocol: (§1) The compounds were tested against a variety of foliar fungal diseases of plants. The technique employed was as follows.
(§2) The plants were grown in John Innes Potting Compost (No 1 or 2) in 4 cm diameter minipots. The test compounds were formulated either by bead milling with aqueous DISPERSOL T or as a solution in acetone or acetone/ethanol which was diluted to the required concentration immediately before use. […] The sprays were applied to maximum retention and the root drenches to a final concentration equivalent to approximately 40 ppm a.i. in dry soil. TWEEN 20 was added to give a final concentration of 0.05% when the sprays were applied to cereals.
(§3) For most of the tests the compounds were applied to the soil (roots) or to the foliage (by spraying) one or two days before the plant was inoculated with the disease. An exception was the test on Erysiphe graminis in which the plants were inoculated 24 hours before treatment. Foliar pathogens were applied by spray as zoosporangial suspensions onto the leaves of test plants. After inoculation, the plants were put into an appropriate environment to allow infection to proceed and then incubated until the disease was ready for assessment. The period between inoculation and assessment varied from four to fourteen days according to the disease and environment.
(§4) The disease level present (i.e. leaf area covered by actively sporulating disease) on each of the treated plants was recorded using the following assessment scale:
(§5) Each assessment was then expressed as a percentage of the level of disease present on the untreated control plants. This calculated value is referred to as a POCO (Percentage of Control) value. An example of a typical calculation is as follows:
(§6) Disease level on untreated control=90
(§7) Disese level on treated plant=30 [formula]
(§8) This calculated POCO value is then rounded to the nearest of the values in the 9-point assessment scale shown above. In this particular example, the POCO value would be rounded to 30. If the calculated POCO falls exactly mid-way between two of the points, it is rounded to the lower of the two values.

[2] = tested on: Puccinia recondita (Wheat); experiment: Foliar fungal disease test on plants: Puccinia recondita (Wheat); settings: 100 ppm a.i. foliar spray or root drench; plants inoculated with Puccinia recondita 48 hours before treatment
Protocol: as §1
The plants were grown in John Innes Potting Compost (No 1 or 2) in 4 cm diameter minipots. The test compounds were formulated either by bead milling with aqueous DISPERSOL T or as a solution in acetone or acetone/ethanol which was diluted to the required concentration immediately before use. The formulations (100 ppm active ingredient) were sprayed on to the foliage or applied to the roots of the plants in the soil. The sprays were applied to maximum retention and the root drenches to a final concentration equivalent to approximately 40 ppm a.i. in dry soil. TWEEN 20 was added to give a final concentration of 0.05% when the sprays were applied to cereals.
as §3, with “For most of the tests the compounds were applied to the soil (roots) or to the foliage (by spraying) one or two days before the plant was inoculated with the disease.” left out
as §4, §5, §6, §7, §8

[3] = tested on: Venturia inaequalis (Apples); experiment: Foliar fungal disease test on plants: Venturia inaequalis (Apples); settings: 100 ppm a.i. foliar spray or root drench (approx. 40 ppm in dry soil), one or two days before inoculation
Protocol: as §1, §2, §3, §4, §5, §6, §7, §8

[4] = tested on: Pyricularia oryzae (Rice); settings: 100 ppm a.i. foliar spray or root drench (approx. 40 ppm in dry soil), one or two days before inoculation
[5] = tested on: Thanatephorus cucumeries (Rice); experiment: Foliar fungal disease test on plants: Thanatephorus cucumeries (Rice); settings: 100 ppm a.i. foliar spray or root drench (approx. 40 ppm in dry soil), one or two days before inoculation
Protocol: as §1, §2, §3, §4, §5, §6, §7, §8

[6] = tested on: Plasmopara viticola (Vines); experiment: Foliar fungal disease test on plants: Plasmopara viticola (Vines); settings: 100 ppm a.i. foliar spray or root drench (approx. 40 ppm in dry soil), one or two days before inoculation
Protocol: as §1, §2, §3, §4, §5, §6, §7, §8

[7] = tested on: Erysiphe graminis tritici (Wheat); experiment: Foliar fungal disease test on plants: Erysiphe graminis tritici (Wheat); settings: 100 ppm a.i. foliar spray or root drench (approx. 40 ppm in dry soil); plants inoculated 24 hours before treatment
Protocol: as §1, §2, §3, §4, §5, §6, §7, §8

Row | SMILES | POCO (Percentage of Control) disease level, Phytophthora infestans (Tomatoes) [1] | POCO (Percentage of Control) disease level, Septoria nodorum (Wheat) (Septoria nodorum (Wheat)) | POCO (Percentage of Control) disease level, Puccinia recondita (Wheat) [2] | POCO (Percentage of Control) disease level, Venturia inaequalis (Apples) [3] | POCO (Percentage of Control) disease level, Pyricularia oryzae (Rice) [4] | POCO (Percentage of Control) disease level, Thanatephorus cucumeries (Rice) [5] | POCO (Percentage of Control) disease level, Plasmopara viticola (Vines) [6] | POCO (Percentage of Control) disease level, Erysiphe graminis tritici (Wheat) [7]
1 | COC=C(C(=O)OC)c1ccccc1COC(=O)N(C)c1ccccc1OC [16 (2)] | 20 (20 and 24 = 10.1-20% disease present) | 5 (5 = 3.1-5% disease present) | 10+ (10 = 5.1-10% disease present) | 1 (1 = 0.1-1% disease present) | 0 (0 = 0% disease present) | 5 (5 = 3.1-5% disease present) | 0 (0 = 0% disease present) | 0 (0 = 0% disease present)
2 | COC=C(C(=O)OC)c1ccccc1COC(=O)Nc1ccccc1C(F)(F)F [18 (1)] | 90 (90 and 94 = 60.1-100% disease present) | 90 (90 and 94 = 60.1-100% disease present) | 90+ (90 and 94 = 60.1-100% disease present) | 3 (3 = 1.1-3% disease present) | 60 (60 = 30.1-60% disease present) | 90 (90 and 94 = 60.1-100% disease present) | 0 (0 = 0% disease present) | 90 (90 and 94 = 60.1-100% disease present)
3 | C=CCN(C(=O)OCc1ccccc1C(=COC)C(=O)OC)c1c(F)cccc1F [23 (101)] | 90 (90 and 94 = 60.1-100% disease present) | 10 (10 = 5.1-10% disease present) | 0+ (0 = 0% disease present) | 0 (0 = 0% disease present) | 0 (0 = 0% disease present) | 0 (0 = 0% disease present) | 0 (0 = 0% disease present) | 0 (0 = 0% disease present)
4 | COC=C(C(=O)OC)c1ccccc1COC(=O)Nc1ccc(F)c([N+](=O)[O-])c1 [105 (1)] | 90 (90 and 94 = 60.1-100% disease present) | 90 (90 and 94 = 60.1-100% disease present) | 90+ (90 and 94 = 60.1-100% disease present) | 20 (20 and 24 = 10.1-20% disease present) | 60 (60 = 30.1-60% disease present) | 60 (60 = 30.1-60% disease present) | 90 (90 and 94 = 60.1-100% disease present) | 30 (30 = 20.1-30% disease present)
5 | COC=C(C(=O)OC)c1ccccc1COC(=O)N(C)c1ccc(F)c([N+](=O)[O-])c1 [105 (2)] | 0 (0 = 0% disease present) | 90 (90 and 94 = 60.1-100% disease present) | 90+ (90 and 94 = 60.1-100% disease present) | 10 (10 = 5.1-10% disease present) | 5 (5 = 3.1-5% disease present) | 0 (0 = 0% disease present) | 0 (0 = 0% disease present) | 0 (0 = 0% disease present)

Reference: patent US6465457B1 (priority 1991, dated 2002)
